One may read the Ki as the dissociation constant of the complex between target and ligand, obtained from inhibition or displacement.

The target in the assay is T1, Dimer of Gag-Pol polyprotein [489-587] (Human immunodeficiency virus 1, UniProt P12497).
T1 construct: 489-587
In words: Protease Inhibition Assay. To be noted: pH 5; 22 °C. The source says: HIV-1 protease was purified and refolded from E. coli inclusion bodies. The substrate used spans the p17-p24 processing site (R-V-S-Q-N-Y-P-I-V-Q-N-K) and was derivatized with biotin and fluorescein isothiocyanate (FITC) at the amino and carboxy termini. In the presence of HIV-l protease, the substrate is rapidly cleaved into two parts. The biotinylated amino terminal fragment binds to the avidin beads while the FITC-containing carboxy1 terminal fragment is removed through the membrane. […] The bound fluorescence is obtained by processing on an IDEXX Screen Machine. Determination of Ki values with this assay requires analysis under conditions in which substrate concentration resides substantially below Km and the inhibitor concentrations greatly exceeds the Ki value and the enzyme concentration.
Compound `CCC(c1cccc(C(=O)NCc2nc3ccccc3[nH]2)c1)c1c(O)c2ccccc2oc1=O` (centres undefined) [N-(1H-1,3-benzodiazol-2-ylmethyl)-3-[1-(4-hydroxy-2-oxo-2H-chromen-3-yl)propyl]benzamide] returned a Ki of 4400 nM.
With `CC(C)(C)OC(=O)NCCC(=O)Nc1cccc(C(c2c(O)c3ccccc3oc2=O)C2CC2)c1` (centres undefined) [tert-butyl N-[2-({3-[cyclopropyl(4-hydroxy-2-oxo-2H-chromen-3-yl)methyl]phenyl}carbamoyl)ethyl]carbamate], the Ki amounted to 86 nM.
The result for `CCC(c1cccc(NC(=O)CCNC(=O)OC(C)(C)C)c1)c1c(O)c2ccc(OC)cc2oc1=O` (centres undefined) [4-Hydroxy-3-[1-3-[[3-[(tert-butyloxycarbonyl)amino]-1-oxopropyl]amino]phenyl]propyl]-7-methoxycoumarin] reads 170 nM; that for `CCC(c1cccc(C(=O)N[C@H](C(=O)NCc2ccccn2)C(C)CC)c1)c1c(O)c2ccccc2oc1=O` (some centres undefined) [3-[1-(4-Hydroxy-2-oxo-2H-1-benzopyran-3-yl)propyl]-N-[2-methyl-1-[[(2-pyridinylmethyl)amino]carbonyl]butyl]benzamide], 400 nM.
